According to patent US9827217B2, “Pharmaceutically acceptable salts of B-guanidinopropionic acid with improved properties and uses thereof” (Rgenix, Inc., priority 2015, dated 2017):
Entries after “also recorded” stand apart in the source; their conditions may differ.

Experiments:
Assay type in all cases: physicochemical
[1] = Determination of bulk and tapped density; details: for Tapped density (ρT): Tap density analyzer
Procedure: The bulk density of β-GPA oxalate (Pattern 18 B), succinate (Pattern 15A), and fumarate (Pattern 7A) were determined by pouring in a known amount of salt (g) into a measuring cylinder. The volume (Vi) occupied by the salt was recorded and the bulk density (ρB) was determined using equation 1. ρB=g/Vi (1)
The tapped densities of the salts were determined using a Tap density analyzer. A known amount of salt was poured (g) into a measuring cylinder and the initial volume was recorded and tapped using a Tap density analyzer. The final volume (Vf) after tapping was recorded and the tapped density (ρT) was calculated by using equation 2. ρT=g/Vf (2)

[2] = Solid form stability of salts in different solvents (slurry); details: 48 hours, room temperature
Procedure: Three salts were studied for solid form stability in water (disproportionation test), methanol, acetonitrile, and acetone:water (9:1) for 48 hours at room temperature.

[3] = Flowability measurement using Hanson Flodex unit; details: density and Hanson Flodex data
From the text: A cylindrical vessel is secured to the stand and above that a funnel is also secured such that the bottom of the funnel is close to the vessel. A powder load of ≈50-60 g is then poured through the funnel into the middle of the cylinder. The lever device is pulled to open the hole in the disk quickly and without vibration. If a powder slowly flows through the small-diameter holes, leaving a cavity shaped like an upside-down, truncated cone, the test is considered positive. If a powder flocculates in bulk and falls abruptly, forming a cylindrical cavity, the test is considered negative. […] If the experiment is negative, the powder is tested again with a disk having a larger hole.

[4] = Dynamic vapor sorption (moisture uptake)
Procedure: Samples were analyzed using an Aquadyne DVS-2 gravimetric water sorption analyzer. The relative humidity was adjusted between 2-95% and the weight of the sample was continuously monitored and recorded.
[…]: β-GPA maleate (1:1) Form II, β-GPA fumarate (1:1), β-GPA maleate (2:1), β-GPA succinate (2:1) and β-GPA oxalate (1:1) were analyzed by DVS experiment followed by XRPD analysis of the sample at the end of the experiment.
Sample 2162-64-1 was analyzed by DVS in triplicate and the post DVS samples were characterized by XRPD to identify the form at the end of the experiment.

[5] = Temperature cycling of 1:1 β-GPA fumarate
Procedure: The following (Table 25) experiments were performed to isolate possible polymorphic forms of 1:1 β-GPA fumarate.

[6] = Gravimetric solubility of β-GPA fumarate in solvents; details: fifteen solvents and solvent mixtures at 15 and 45° C.
Procedure: Solubility of β-GPA fumarate was measured gravimetrically in fifteen different solvents and solvent mixtures at 15 and 45° C. About 100 mg of the compound was dispensed in ten volumes (1 mL) of the solvent/solvent mixture and slurried for 48 hours. Table 23 represents the solubility of β-GPA fumarate in different solvents. After 48 hours the vials were centrifuged. The supernatant was collected and left for slow evaporation under vacuum at 45° C. and solubility was determined. The solids obtained after centrifugation and evaporation were analyzed by XRPD.

[7] = Solid form stability of 1:1 β-GPA fumarate at various temperature/humidity conditions
[8] = as above; details: for XRPD after stability study: a week
Procedure: The solid form stability of β-GPA fumarate was studied at various temperature/humidity conditions as listed in Table 22 for a week using saturated salt solution chambers. The samples were analyzed by XRPD after a week.

[9] = Stability of free β-GPA at 40° C. at 75% humidity; details: 40° C. at 75% humidity after 4 weeks
[10] = Solubility of β-GPA in water
[11] = Determination of Carr's index and Hausner ratio; details: scale of Table 5
From the text: The flow properties of β-GPA are sub-optimal. The bulk density is 0.389 g/cc and the tapped density is 0.627 g/cc. These measurements can be used to calculate the Carr's index and Hausner ratio for a substance. The Carr's index and Hausner ratio are indicators of flowability of a powder. As known in the art, e.g., as described in Carr R. L. Chem. Eng. 1965, 72, 163-168, the relationship to flowability of a powder to the Carr's index and Hausner ratio is based on the scale shown in Table 5 below.
Carr's index or Carr's compressibility index (C) is an indication of the compressibility of a powder. It can be calculated using the equation below: Carr's index(C)=100(Vi−Vf)/Vi (3)
The Hausner ratio is a number that is correlated to the flowability of a powder or granular material. It is calculated by using the equation below: Hausner ratio=Vi/Vf (4)

[12] = Experiments performed on 2:1 fumarate salt (Pattern 7C)
Procedure: To confirm the above hypothesis the following experiments (Table 24) were performed on the lyophilized sample (Pattern 7C): […]

[13] = 50 mg slurried in 0.2 mL of water

N=C(N)NCCC(=O)O.N=C(N)NCCC(=O)O.O=C(O)CCC(=O)O [β-GPA succinate (2:1)]
Bulk density (ρB) [1]: 0.405 g/cc
Tapped density (ρT) [1]: 0.472 g/cc
Solid form stability (XRPD) after slurry in acetone:water (9:1) [2]: presence of β-GPA
Solid form stability (XRPD) after slurry in acetonitrile [2]: retain its original form
Solid form stability (XRPD) after slurry in acetonitrile ([2]; listed as 2:1 β-GPA succinate): retain its XRPD pattern
Solid form stability (XRPD) after slurry in methanol [2]: retain its original form
Solid form stability (XRPD) after slurry in methanol ([2]; listed as 2:1 β-GPA succinate): retain its XRPD pattern
Solid form stability (XRPD) after slurry in water (disproportionation test) [2]: showed two peaks from β-GPA after 6 hours
Solid form stability (XRPD) after slurry in water (disproportionation test) ([2]; listed as 2:1 β-GPA succinate): started showing up peaks from β-GPA after 6 hours
Flow character (summary from the experimental data) [3]: good
Solid form after the DVS experiment (XRPD) ([4]; XRPD of post DVS sample): retained their XRPD
Solid form after the DVS experiment (XRPD) ([4]; XRPD of post DVS sample, listed as 2:1 succinate salt): no form change
Solid form after the DVS experiment (XRPD) ([4]; XRPD of post DVS sample, listed as 2:1 β-GPA succinate): no form change

N=C(N)NCCC(=O)O.O=C(O)C(=O)O [β-GPA oxalate (1:1)]
Bulk density (ρB) [1]: 0.505 g/cc
Tapped density (ρT) [1]: 0.623 g/cc
Solid form stability (XRPD) after slurry in acetone:water (9:1) [2]: retain their XRPD pattern
Solid form stability (XRPD) after slurry in acetonitrile [2]: retain their XRPD pattern
Solid form stability (XRPD) after slurry in methanol [2]: retain their XRPD pattern
Solid form stability (XRPD) after slurry in water (disproportionation test) [2]: retained their XRPD patterns
Solid form stability (XRPD) after slurry in water (disproportionation test) ([2]; listed as 1:1 β-GPA oxalate): retained their XRPD pattern
Flow character (summary from the experimental data) [3]: fair
Solid form after the DVS experiment (XRPD) ([4]; XRPD of post DVS sample): retained their XRPD
Solid form after the DVS experiment (XRPD) ([4]; XRPD of post DVS sample, listed as 1:1 oxalate salt): no form change
Solid form after the DVS experiment (XRPD) ([4]; XRPD of post DVS sample, listed as 1:1 β-GPA oxalate): no form change

N=C(N)NCCC(=O)O.O=C(O)/C=C/C(=O)O [β-GPA fumarate (1:1)]
Result (XRPD) after temperature cycling ([5]; 50° C. 2 hours, RT, 50° C. 48 hours): Pattern 7A
Result (XRPD) after temperature cycling ([5]; dry ice-acetone 30 minutes, RT): Pattern 7A
Result (XRPD) after temperature cycling ([5]; heated to 150° C. and brought to room temperature, three cycles): Pattern 7A
Result (XRPD) after temperature cycling ([5]; heated to 165° C., immediately dry ice/acetone cooling bath 15 min): Pattern 7D
Appearance after heating ([5]; heating at 160-165° C. (2162-84-7)): yellow to brownish solid
Result (XRPD) after temperature cycling ([5]; vacuum oven 130° C. 2 hours, RT, 130° C. 48 hours): Pattern 7A
Bulk density (ρB) [1]: 0.576 g/cc
Tapped density (ρT) [1]: 0.613 g/cc
Solid form stability (XRPD) after slurry in acetone:water (9:1) [2]: retain their XRPD pattern
Solid form stability (XRPD) after slurry in acetonitrile [2]: retain their XRPD pattern
Solid form stability (XRPD) after slurry in methanol [2]: retain their XRPD pattern
Solid form stability (XRPD) after slurry in water (disproportionation test) [2]: retained their XRPD patterns
Solid form stability (XRPD) after slurry in water (disproportionation test) ([2]; listed as 1:1 β-GPA fumarate): retained their XRPD pattern
Solid form of precipitates after 48 hours slurries (XRPD) [6]: no form transformations
XRPD after stability study ([7]; 60 ° C., 50% relative humidity, a week): Pattern 7A
Solid form stability at high humidity (XRPD) ([7]; sample 2162-64-1, RH>95% at room temperature (20° C.), 48 hours): retain its original XRPD pattern (Pattern 7A); also recorded: stable
Flow character (summary from the experimental data) [3]: excellent
Solid form after the DVS experiment (XRPD) ([4]; XRPD of post DVS sample): presence of two peaks from the β-GPA
Solid form after the DVS experiment (XRPD) ([4]; XRPD of post DVS sample, listed as 1:1 fumarate): presence of β-GPA peaks along with Pattern 7A
Solid form after the DVS experiment (XRPD) ([4]; XRPD of post DVS sample, listed as 1:1 fumarate salt): no form change
Moisture uptake during DVS ([4]; scaled-up sample 2162-64-1, DVS in triplicate): less than 0.1%
Solid form after the DVS experiment (XRPD) ([4]; scaled-up sample 2162-64-1, three DVS experiments): identical to β-GPA fumarate (Pattern 7A); also recorded: did not exhibit any dissociation of the salt
XRPD after stability study ([8]; 20 ° C., 43% relative humidity): Pattern 7A
XRPD after stability study ([8]; 20 ° C., 59% relative humidity): Pattern 7A
XRPD after stability study ([8]; 20 ° C., 73% relative humidity): Pattern 7A
XRPD after stability study ([8]; 20 ° C., >95% relative humidity): Pattern 7A
XRPD after stability study ([8]; 40 ° C., 82% relative humidity): Pattern 7A
XRPD after stability study ([8]; 60 ° C., 80% relative humidity): Pattern 7A
XRPD after stability study (summary) ([8]; various temperature/RH conditions of Table 22, a week): retained the original XRPD pattern (Pattern 7A)

N=C(N)NCCC(=O)O [β-GPA, β-Guanidinopropionic acid, reference compound]
Degradation [9]: No degradation
Bulk density (ρB) [1]: 0.389 g/cc
Tapped density (ρT) [1]: 0.627 g/cc
solubility [10]: > 50 mg/mL
Flow character by Carr's index [11]: Very poor (32-37)
Flow character (summary from the experimental data) [3]: poor
Moisture uptake during the DVS experiment ([4]; DVS, relative humidity cycled up to 95%): around 0.1%
Solid form after the DVS experiment (XRPD) ([4]; XRPD of post DVS sample): No change in the solid form

N=C(N)NCCC(=O)O.O=C(O)/C=C\C(=O)O [β-GPA maleate (1:1) Form II]
Solid form stability (XRPD) after slurry in acetone:water (9:1) [2]: matched with the original pattern of the salt (Pattern 6D) along with some additional peaks
Solid form stability (XRPD) after slurry in acetonitrile [2]: retain its XRPD pattern
Solid form stability (XRPD) after slurry in methanol [2]: retain its XRPD pattern
Solid form stability (XRPD) after slurry in water (disproportionation test) [2]: retained their XRPD patterns
Solid form after the DVS experiment (XRPD) ([4]; XRPD of post DVS sample): no form change

N=C(N)NCCC(=O)O.N=C(N)NCCC(=O)O.O=C(O)/C=C/C(=O)O [2:1 fumarate salt]
Stability of the crystalline form of the 2:1 salt [12]: unstable
Result: XRPD pattern that Pattern 7C converted to [12, 13]: Pattern 7A
Time to conversion of Pattern 7C to Pattern 7A [12, 13]: (within 10 minutes
Result: XRPD pattern that Pattern 7C converted to ([12]; heated at 50° C. 5-10 minutes): Pattern 7A
Result: XRPD pattern that Pattern 7C converted to ([12]; humidity chamber with RH >95% for 48 hours): Pattern 7A
Result: XRPD pattern that Pattern 7C converted to ([12]; mixed with Pattern 7A, undisturbed at room temperature (48 hours)): Pattern 7A
Form conversion of the 2:1 salt ([12]; slurried in water, heated, or under high humidity conditions): converted to the 1:1 salt
